Measured values reported in patent US20250002608A1, “TREATMENT OF PAIN” (UTI Limited Partnership, priority 2021, published 2025).

Tests used:
ALK [1] = conditions: human, in vivo; cited from earlier work
small DRG neurons = assay: Excitability of small DRG neurons exposed to ALKAL2 (current clamp); assay type: cell-based, mouse; conditions: for resting membrane potential (RMP): small DRG neurons, n=13
Protocol: DRG neurons were harvested from adult mice and enzymatically dissociated in Hank's balanced salt solution (HBSS) containing 2 mg/ml collagenase type I and 4 mg/ml dispase (Invitrogen) for 45 min at 37° C. […] Electrophysiological recordings were conducted using an external solution containing (in mM): 140.0 NaCl, 1.5 CaCl2, 2.0 MgCl2, 5.0 KCl, 10.0 HEPES, 10.0 D-glucose, pH 7.4 adjusted with NaOH, on the stage of an inverted epi-fluorescence microscope (Olympus IX51). DRG neuron were recorded based on size, knowing that TRPV1 is expressed in small neurons […], and pHluorin fluorescent signal. Action potentials were recorded using current clamp. Borosilicate glass (Harvard Apparatus Ltd.) pipettes were pulled and polished to 2-5 MQ resistance with a DMZ-Universal Puller (Zeitz-Instruments GmbH.) and filled with an internal solution containing (in mM): 140.0 KCl, 5.00 NaCl, 1 CaCl2, 1.0 EGTA, 10.0 HEPES, 1.0 MgCl2, 3.0 ATP Na2, pH 7.3 adjusted with KOH. All solutions were prepared and used at room temperature (22±2° C.) and their osmolarity adjusted to 310 mOsm. […] Recordings were performed using an Axopatch 200B amplifier (Axon Instruments, Foster City, CA, USA). Current-clamp protocols were applied using pClamp 10.4 software (Axon Instruments). […] Average DRG neuron capacitance was 12.45±0.85 pF. […] For prolonged ALKAL2 treatment, neurons were incubated with a low concentration of 10 nM for 16 hours.

[2] = test system: small (<20 μm) DRG neurons; assay: Neurite outgrowth of DRG neurons co-cultured with ALKAL2-transfected HEK cells; assay type: cell-based, mouse
Excerpt: Previous work has shown that the ALK receptor plays a central role in the development of neural-crest derived cells and neurite outgrowth (18, 19, 37, 38). Using a co-culture system, we tested whether secreted ALKAL2 is able to activate ALK on DRG neurons, thus promoting neurite outgrowth through an autocrine/paracrine signaling process. In this assay, HEK cell monolayers seeded in the upper chamber of a transwell were transfected with ALKAL2, and then placed above acutely dissociated DRG neurons seeded into the lower chamber (FIG. 4A). DRG neurons were exposed to HEK-secreted ALKAL2 for a further 16 hours, after which, neurite growth was assessed on small and medium size neurons (FIG. 4A).
DRG neurons were harvested from adult mice and enzymatically dissociated in Hank's balanced salt solution (HBSS) containing 2 mg/ml collagenase type I and 4 mg/ml dispase (Invitrogen) for 45 min at 37° C. DRGs were rinsed twice in HBSS and once in Neurobasal A culture medium (Thermo Fisher Scientific) supplemented with 2% B-27, 10% heat-inactivated fetal bovine serum (HI-FBS), 100 μg/ml streptomycin, 100 U/ml penicillin, 100 ng/ml of Nerve Growth Factor (NGF) and 100 ng/ml glial cell-derived neurotrophic factor (GDNF) (all from Invitrogen). Individual neurons were dispersed by trituration through a fire-polished glass Pasteur pipette in 4 ml media and cultured overnight at 37° C. with 5% CO2 in 96% humidity on glass coverslips previously treated with 25% Poly-Ornithine and Laminin (both from Sigma).
For co-culture experiments, human embryonic kidney (HEK) 293 tsA-201 cells were grown to 80% confluence at 37° C. (5% CO2) in Dulbecco's modified Eagle's medium (+10% fetal bovine serum, 200 units/ml penicillin and 0.2 mg/ml streptomycin (Invitrogen, Carlsbad, CA, USA)) in the transwell of a 12-well cell culture plate (Gibco). Cells were transfected with 0.5 or 1 μg of ALKAL2 plasmid (Genomics, ABIN3292379) using the calcium phosphate method and washed 12 hours after transfection. After another 8 hours, isolated DRG neurons plated on glass coverslips were placed in the bottom chamber of the 12-well plate and the media was changed to Neurobasal A culture medium (see above). Electrophysiological recordings or immunohistochemistry were conducted 24 hours later.
For the neurite outgrowth assay, cultured DRG neurons were either treated with increasing concentrations ([…], 1 nM, 10 nM, 100 nM and 1 μM) of recombinant mouse ALKAL2 (MyBioSource LLC, MBS14253) or co-cultured with ALKAL2 expressing HEK cells (see above) in Neurobasal A medium. After 24 h, the cells were washed twice with HBSS, fixed in 4% PFA for 15 min., incubated in blocking solution (PBS+1% BSA) for 30 min. and then immunostained with anti-β-tubulin III antibody (rabbit, 1/1000, Sigma-Aldrich) overnight at 4° C. Cells were washed in PBS twice then incubated with a goat-anti rabbit IgG conjugated to Alexa Fluor 488 (1/2000, Invitrogen) for 1 h. After several washes, coverslips were mounted on slides and confocal images acquired. Alexa-488 antibody was visualized by excitation with an argon laser […] and emission detected using a long-pass 530 nm filter. Alexa-555 antibody was visualized by excitation at 543 nm with a HeNe laser, and emission detected using a 585-615 nm band-pass filter.

TRPV1-pHluorin [3] = assay: Capsaicin-evoked TRPV1 current (I-V ramp) in HEK cells transfected with TRPV1-pHluorin; assay type: cell-based; conditions: capsaicin 100 nM
TRPV1-pHluorin [4] = biological target: T1, TRPV1-pHluorin (Mus musculus, UniProt Q704Y3); assay: Capsaicin dose-response by calcium imaging on DRG neurons from TRPV1-pHluorin mice; assay type: cell-based; conditions: read-out: EC50 of dose-response curve evoked by capsaicin, room temperature (22° C.), n=28
T1 construct: fused on or other part: superecliptic pHluorin (ecliptic GFP, EcGFP) inserted into the extracellular turret between His and Lys (615/616; H614/K615 elsewhere in the source)
T1 sequence (Q704Y3 1-615 limits assumed): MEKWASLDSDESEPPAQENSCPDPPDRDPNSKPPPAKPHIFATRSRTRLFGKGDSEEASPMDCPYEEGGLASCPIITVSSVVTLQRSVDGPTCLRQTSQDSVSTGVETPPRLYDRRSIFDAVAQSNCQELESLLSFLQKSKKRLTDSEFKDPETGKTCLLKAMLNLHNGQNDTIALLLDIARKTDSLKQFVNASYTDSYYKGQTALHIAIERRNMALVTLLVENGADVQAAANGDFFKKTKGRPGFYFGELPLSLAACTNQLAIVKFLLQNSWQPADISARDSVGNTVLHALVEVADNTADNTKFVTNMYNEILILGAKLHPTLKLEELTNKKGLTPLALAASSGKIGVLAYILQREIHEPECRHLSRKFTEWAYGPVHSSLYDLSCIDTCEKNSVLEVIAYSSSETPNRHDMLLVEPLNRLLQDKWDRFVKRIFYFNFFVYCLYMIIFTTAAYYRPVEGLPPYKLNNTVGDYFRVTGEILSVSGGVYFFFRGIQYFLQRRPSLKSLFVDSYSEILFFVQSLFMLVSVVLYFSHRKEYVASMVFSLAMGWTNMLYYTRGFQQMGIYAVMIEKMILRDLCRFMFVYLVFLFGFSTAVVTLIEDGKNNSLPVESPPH
T1 sequence (Q704Y3 616-839 limits assumed): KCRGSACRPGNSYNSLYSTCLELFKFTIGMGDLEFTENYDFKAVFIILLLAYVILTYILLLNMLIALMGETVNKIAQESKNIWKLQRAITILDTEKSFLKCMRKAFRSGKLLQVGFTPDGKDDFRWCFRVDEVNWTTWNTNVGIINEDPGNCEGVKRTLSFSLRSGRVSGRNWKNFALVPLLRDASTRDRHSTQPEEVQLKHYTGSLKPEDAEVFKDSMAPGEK

DRG neurons from WT mice = assay: Current-clamp recording of DRG neurons from WT mice exposed to capsaicin; assay type: cell-based, mouse; conditions: capsaicin 100 nM
Protocol: (§1) DRG neurons were harvested from adult mice and enzymatically dissociated in Hank's balanced salt solution (HBSS) containing 2 mg/ml collagenase type I and 4 mg/ml dispase (Invitrogen) for 45 min at 37° C. […] Electrophysiological recordings were conducted using an external solution containing (in mM): 140.0 NaCl, 1.5 CaCl2, 2.0 MgCl2, 5.0 KCl, 10.0 HEPES, 10.0 D-glucose, pH 7.4 adjusted with NaOH, on the stage of an inverted epi-fluorescence microscope (Olympus IX51). DRG neuron were recorded based on size, knowing that TRPV1 is expressed in small neurons […], and pHluorin fluorescent signal. Action potentials were recorded using current clamp. Borosilicate glass (Harvard Apparatus Ltd.) pipettes were pulled and polished to 2-5 MQ resistance with a DMZ-Universal Puller (Zeitz-Instruments GmbH.) and filled with an internal solution containing (in mM): 140.0 KCl, 5.00 NaCl, 1 CaCl2, 1.0 EGTA, 10.0 HEPES, 1.0 MgCl2, 3.0 ATP Na2, pH 7.3 adjusted with KOH. All solutions were prepared and used at room temperature (22±2° C.) and their osmolarity adjusted to 310 mOsm. […] Recordings were performed using an Axopatch 200B amplifier (Axon Instruments, Foster City, CA, USA). Current-clamp protocols were applied using pClamp 10.4 software (Axon Instruments). […] Average DRG neuron capacitance was 12.45±0.85 pF. […]

[5] = test system: DRG neurons from TRPV1-pHluorin mice; assay: Current-clamp recording of DRG neurons from TRPV1-pHluorin mice exposed to capsaicin; assay type: cell-based, mouse; conditions: capsaicin 100 nM
Protocol: as §1

TRPV1 wild type = biological target: T2, TRPV1 wild type (Homo sapiens, UniProt Q8NER1); assay: Capsaicin-evoked TRPV1 current (I-V ramp) in HEK cells transfected with TRPV1 wild type; assay type: cell-based; conditions: capsaicin 100 nM, TRPV1 WT
T2 construct: expressed in transfected cells; host or cells: HEK cells
T2 sequence (Q8NER1 whole entry, species assumed): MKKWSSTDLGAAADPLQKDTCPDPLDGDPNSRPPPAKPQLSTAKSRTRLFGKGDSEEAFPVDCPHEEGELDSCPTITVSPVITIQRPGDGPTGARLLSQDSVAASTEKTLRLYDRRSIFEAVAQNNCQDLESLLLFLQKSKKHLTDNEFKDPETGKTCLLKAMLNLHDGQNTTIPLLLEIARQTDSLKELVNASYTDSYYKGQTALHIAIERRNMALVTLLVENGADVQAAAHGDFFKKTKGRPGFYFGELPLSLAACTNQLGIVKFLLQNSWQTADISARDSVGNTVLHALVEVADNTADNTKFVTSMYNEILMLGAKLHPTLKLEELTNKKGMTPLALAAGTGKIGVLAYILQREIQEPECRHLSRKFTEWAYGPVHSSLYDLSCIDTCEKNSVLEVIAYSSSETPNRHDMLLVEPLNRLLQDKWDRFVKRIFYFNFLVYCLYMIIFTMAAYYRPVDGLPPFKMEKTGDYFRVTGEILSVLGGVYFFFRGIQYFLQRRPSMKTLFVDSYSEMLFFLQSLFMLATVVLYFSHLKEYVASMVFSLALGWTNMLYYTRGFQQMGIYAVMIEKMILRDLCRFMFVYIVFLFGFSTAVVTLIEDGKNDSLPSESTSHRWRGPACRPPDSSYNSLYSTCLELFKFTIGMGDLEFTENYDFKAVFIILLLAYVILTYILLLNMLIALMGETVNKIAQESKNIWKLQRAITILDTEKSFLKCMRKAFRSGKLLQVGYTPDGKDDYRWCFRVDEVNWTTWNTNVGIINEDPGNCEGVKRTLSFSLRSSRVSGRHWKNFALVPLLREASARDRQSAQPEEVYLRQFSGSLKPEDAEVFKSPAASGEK

[6] = biological target: anaplastic lymphoma kinase (ALK) receptor, endogenous on mouse DRG neurons and in the mouse spinal dorsal horn (mouse) (UniProt P97793); assay: cell-based or functional assay
anaplastic lymphoma kinase (ALK) receptor, endogenous on mouse DRG neurons and in the mouse spinal dorsal horn (mouse), sequence (P97793 19-1621): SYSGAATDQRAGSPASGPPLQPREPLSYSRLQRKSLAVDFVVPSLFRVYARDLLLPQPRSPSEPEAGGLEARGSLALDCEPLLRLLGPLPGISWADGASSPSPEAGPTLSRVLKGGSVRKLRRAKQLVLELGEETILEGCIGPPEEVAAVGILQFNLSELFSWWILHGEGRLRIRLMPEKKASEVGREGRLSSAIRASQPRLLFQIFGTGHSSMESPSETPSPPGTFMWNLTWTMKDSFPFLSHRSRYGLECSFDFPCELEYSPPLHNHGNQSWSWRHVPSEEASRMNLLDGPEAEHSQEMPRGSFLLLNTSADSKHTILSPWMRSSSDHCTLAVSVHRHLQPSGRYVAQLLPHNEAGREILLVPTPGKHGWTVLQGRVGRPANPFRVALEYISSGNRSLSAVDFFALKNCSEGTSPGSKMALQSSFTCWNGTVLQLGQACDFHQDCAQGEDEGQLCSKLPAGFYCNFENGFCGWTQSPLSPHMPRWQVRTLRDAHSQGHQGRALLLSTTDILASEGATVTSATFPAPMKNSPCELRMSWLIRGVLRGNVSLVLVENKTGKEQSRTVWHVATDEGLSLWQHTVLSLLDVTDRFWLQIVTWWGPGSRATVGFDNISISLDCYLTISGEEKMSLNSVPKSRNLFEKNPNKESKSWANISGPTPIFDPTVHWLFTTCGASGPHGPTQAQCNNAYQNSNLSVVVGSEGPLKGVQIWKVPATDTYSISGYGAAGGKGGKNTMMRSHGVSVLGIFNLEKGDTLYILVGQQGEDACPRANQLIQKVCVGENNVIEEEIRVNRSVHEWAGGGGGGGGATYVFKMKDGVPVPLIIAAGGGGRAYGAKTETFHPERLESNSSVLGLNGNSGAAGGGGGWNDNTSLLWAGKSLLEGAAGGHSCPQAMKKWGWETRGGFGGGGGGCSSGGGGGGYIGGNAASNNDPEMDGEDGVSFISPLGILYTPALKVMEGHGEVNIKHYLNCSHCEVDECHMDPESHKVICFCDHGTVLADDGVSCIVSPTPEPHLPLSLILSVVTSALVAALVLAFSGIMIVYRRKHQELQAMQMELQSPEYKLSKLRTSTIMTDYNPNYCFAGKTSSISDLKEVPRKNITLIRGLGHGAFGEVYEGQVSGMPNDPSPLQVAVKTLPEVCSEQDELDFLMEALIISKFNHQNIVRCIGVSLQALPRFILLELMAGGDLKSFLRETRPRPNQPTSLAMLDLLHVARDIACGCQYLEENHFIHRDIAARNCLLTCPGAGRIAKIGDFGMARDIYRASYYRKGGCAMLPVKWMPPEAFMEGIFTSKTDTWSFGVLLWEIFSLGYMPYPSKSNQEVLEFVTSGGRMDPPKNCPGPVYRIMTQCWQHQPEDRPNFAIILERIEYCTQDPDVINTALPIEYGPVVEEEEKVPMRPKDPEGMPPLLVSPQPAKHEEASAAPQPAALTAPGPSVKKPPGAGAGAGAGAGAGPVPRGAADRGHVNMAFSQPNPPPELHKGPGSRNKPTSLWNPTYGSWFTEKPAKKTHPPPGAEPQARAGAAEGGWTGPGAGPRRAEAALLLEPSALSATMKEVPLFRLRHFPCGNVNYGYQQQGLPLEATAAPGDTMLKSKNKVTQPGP

ALK [7] = biological target: T3, ALK (Mus musculus, UniProt P97793); assay: pALK immunostaining in the spinal dorsal horn after intrathecal ALKAL2; assay type: in vivo; conditions: 30 min following intrathecal ALKAL2 injection
T3 construct: from tissue; host or cells: living mice, spinal dorsal horn
T3 sequence (P97793 19-1621): as above
Protocol: (§2) Intrathecal injections were performed in conscious mice. Briefly, mice were manually restrained, the dorsal fur of each mouse was shaved, the spinal column was arched, and a 30-gauge needle attached in a PE20 Polyethylene tube to a 25 μl Hamilton micro syringe (Hamilton, Birmingham, UK) was inserted into the subarachnoid space between the L4 and L5 vertebrae. Accurate positioning of the needle tip was confirmed by a characteristic tail-flick response of animal when the needle if correctly positioned. Intrathecal injections of 10 μl were delivered over a period of 5 seconds.

ALK [8] = biological target: T3, ALK; assay: Thermal hyperalgesia induced by intrathecal ALKAL2; assay type: in vivo
Protocol: as §2
Three trials for each mouse were performed.

[9] = ALKAL2 co-culture in the presence of Lorlatinib 1 μM
[10] = ALKAL2 plasmid co-culture 16 h, small DRG neurons
[11] = ALKAL2 transfected condition vs control

Cc1cc(Nc2ncc(Cl)c(Nc3ccccc3S(=O)(=O)C(C)C)n2)c(OC(C)C)cc1C1CCNCC1 [Ceritinib]
effect on pain in NSCL cancer patients (ALK [1]): could reduce chest, arm and shoulder pain

C[C@H]1Oc2cc(cnc2N)-c2c(nn(C)c2C#N)CN(C)C(=O)c2ccc(F)cc21 [Lorlatinib]
action potential (AP) threshold (small DRG neurons; ALKAL2+Lorlatinib group, n=9): −31.59±1.76 mV | resting membrane potential (RMP) (small DRG neurons; ALKAL2+Lorlatinib group): −54.5±1.53 mV | neurites per neuron [2, 9]: 8.7±1.9 | number of branch points per neuron [2, 9]: 3.6±0.5 | total neurite length per neuron [2, 9]: 83±8.8 μm

COc1cc(CNC(=O)CCCC/C=C/C(C)C)ccc1O [capsaicin]
peak inward current at −100 mV (TRPV1-pHluorin [3]): −7.33±2.91 pA/pF | peak outward current at +100 mV (TRPV1-pHluorin [3]): 61.36±11.97 pA/pF | EC50 (TRPV1-pHluorin [4]): 1.06 ± 0.09 µM | resting membrane potential after application of capsaicin (DRG neurons from WT mice): −36.61±1.83 mV | AP frequency after capsaicin (DRG neurons from WT mice; 400 pA current injection): 18.56±2.44 Hz | resting membrane potential after application of capsaicin [5]: −38.01±2.17 mV | AP frequency after capsaicin ([5]; 400 pA current injection): 17.22±0.84 Hz | peak inward current at −100 mV (TRPV1 wild type): −10.2±1.63 pA/pF | peak outward current at +100 mV (TRPV1 wild type): 62.82±11.72 pA/pF

B1: ALKAL2 secreted by HEK 293 tsA-201 cells transfected with ALKAL2 plasmid (Genomics, ABIN3292379) (ligand, UniProt Q6UX46 25-152, looked up, species assumed)
ALK and LTK ligand 2: GAEPREPADGQALLRLVVELVQELRKHHSAEHKGLQLLGRDCALGRAEAAGLGPSPEQRVEIVPRDLRMKDKFLKHLTGPLYFSPKCSKHFHRLYHNTRDCTIPAYYKRCARLLTRLAVSPVCMEDKQ
total neurite length per neuron [6]: 267 µm | total neurite length per neuron, transwell co-culture [6]: 5 fold | total neurites in small (<20 µm) DRG neurons (neurites per neuron) [6]: 18.6

B2: ALKAL2: ligand of the ALK receptor; recombinant mouse ALKAL2 or secreted by HEK cells transfected with ALKAL2 plasmid (protein)
chain: QSRGPADRQTLLRLLVELVQELKKFHIGDSKRLQLLGESDFALGRREATDYGADQEEQRVEIVPRDLRMKDKFLKHLTGPLYFSPKCSKHFHRLYHNTRDCTIPAYYKRCARLLTRLAVSPMCMER
pALK in the spinal dorsal horn (ALK [7]): increase in pALK | time after administration at which thermal hypersensitivity is back to baseline (ALK [8]; intrathecal ALKAL2, n=5 each group): 72 h | thermal hyperalgesia in naïve mice (ALK [8]; recombinant ALKAL2 intrathecal, 0.01, 0.1, 1 uM): induced thermal hyperalgesia lasting several hours in a dose-dependent manner | action potential (AP) threshold (small DRG neurons; ALKAL2 group, n=11): −40.57±2.88 mV | resting membrane potential (RMP) (small DRG neurons; ALKAL2 group): −55.15±2.21 mV | AP frequency evoked by ascending steps of injected current (small DRG neurons; recombinant ALKAL2 for 16 h (10 nM)): pronounced increase | number of branch points per neuron [2, 10]: 8.9±0.9 | total neurite length per neuron [2, 10]: 267.1±2.2 μm | total neurites per neuron [2, 10]: 18.6±1.2 | increase in the total neurite length per neuron [2, 11]: five-fold increase | increase in the total number of neurites (primary and secondary branches) and branching points [2, 11]: two-fold increase
